According to patent US4758586A, “Indolyl compounds and hyposensitivity use thereof” (USV Pharmaceutical Corp., priority 1986, dated 1988):

Columns and labels:
5-lipoxygenase = target: T1, 5-lipoxygenase (Rattus norvegicus, UniProt P12527); experiment: Protocol for detecting inhibitors of the lipoxygenase pathway (5-HETE formation in rat neutrophils); type: cell-based; conditions: rat PMN, [14C]-arachidonic acid + A23187, 5-HETE; read-out: LOX, (RAT PMN) I50
T1 construct: A suspension of rat neutrophils in buffer; endogenous in cells; host or cells: rat neutrophils (PMN)
T1 sequence (P12527 1-673): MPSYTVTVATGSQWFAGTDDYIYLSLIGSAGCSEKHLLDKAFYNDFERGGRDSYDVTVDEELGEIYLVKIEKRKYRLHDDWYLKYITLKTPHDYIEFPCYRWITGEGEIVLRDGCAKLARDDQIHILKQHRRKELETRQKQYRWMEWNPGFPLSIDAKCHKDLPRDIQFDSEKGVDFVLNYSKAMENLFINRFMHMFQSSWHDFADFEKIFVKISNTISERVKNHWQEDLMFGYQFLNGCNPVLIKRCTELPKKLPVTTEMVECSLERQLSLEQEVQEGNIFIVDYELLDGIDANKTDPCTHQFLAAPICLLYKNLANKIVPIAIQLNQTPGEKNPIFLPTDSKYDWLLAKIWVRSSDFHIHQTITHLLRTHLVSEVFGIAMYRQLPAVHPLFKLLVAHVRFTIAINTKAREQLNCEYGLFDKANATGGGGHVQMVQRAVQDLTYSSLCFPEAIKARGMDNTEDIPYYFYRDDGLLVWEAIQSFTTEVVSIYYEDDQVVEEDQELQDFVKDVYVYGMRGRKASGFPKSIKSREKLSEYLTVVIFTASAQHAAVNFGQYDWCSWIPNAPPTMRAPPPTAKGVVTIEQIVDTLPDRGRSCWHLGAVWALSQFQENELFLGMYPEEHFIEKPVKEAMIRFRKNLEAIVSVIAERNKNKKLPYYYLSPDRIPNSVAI
Method: Protocol for Detecting Inhibitors of the Lipoxygenase Pathway
A suspension of rat neutrophils in buffer is incubated for 3 minutes at 30° C. with [^14 C]-arachidonic acid (AA) and Calcium Ionophore A23187. Citric acid (2M) is used to quench the reaction. Following the addition of a trace amount of (^3 H)-5-HETE together with an excess of unlabeled 5-HETE to each tube, the mixture is extracted with chloroform/methanol. The organic layer is washed with dilute acid and an aliquot is transferred to glass tubes and dried. The residue is dissolved in a small volume of chloroform and an aliquot is spotted on silica get TLC sheets, which are developed with an ethyl acetate/isooctane/water acetic acid solvent system. The 5-HETE spots are visualized with iodine, cut out and placed in scintillation vials for counting. After adjusting for the extraction efficiency, the amount (pmole) of [^14 C]-5-HETE in each of the tubes is quantitated. The net pmoles of 5-HETE are obtained by subtracting the pmoles of 5-HETE in the tubes containing […]. The ability of the test compounds to modulate the activity of this enzyme is determined by a decrease or increase in the net amount of 5-HETE produced.

Phospholipase C (PLC) = experiment: In vitro assay for inhibitors of Phospholipase C (PLC) from rat platelets; type: biochemical; conditions: read-out: PLC, I50
Source text: A. Protocol For In Vitro Assay For Inhibitors Of Phospholipase C (PLC)
The PLC employed in this screen is obtained by aggregation of purified rat platelets in the presence of CaCl2 and ADP. In the enzyme assay phosphatidylinositol having ^3 H -labeled arachidonate residues at R2 is employed as substrate. PLC acts by cleaving the phosphate ester bond yielding diglyceride as follows: [drawing 18]
Following completion of the reaction, the assay medium is acidified and extracted with hexane which takes up unreacted substrate and diglyceride. The hexane extract is passed over a short silica gel column which retains 99% of the phosphatidylinositol. The ^3 H-labeled diglyceride is not retained […]. The diglyceride is conveniently quantitated by liquid scintillation spectrometry.
The compounds were tested at 300 u in a buffer containing 0.06 mM unlabeled phosphatidylcholine (PC), 20-30,000 cpm of (CPC), 150 mM NaCl, 5 mM CaCl2 and 50 mM tris(hydroxymethyl)methylaminopropanesulfonic acid buffer, adjusted to pH 9.0 with 1N NaOH. The temperature of the buffer was maintained at a temperature of 37° C. The reaction was initiated by addition of the enzyme and it was terminated 10 minutes later by addition of 1 ml of 1N HCl.
Following acidification, the samples were extracted with 2 ml of isopropyl alcohol and 2 ml of hexane, vortexed and allowed to stand until the phases separate. […] and some unreacted substrate were taken up in the isopropanol-saturated hexane. The hexane phase of the extraction mixture was transferred to a short silica gel column which retains unreacted phosphatidylinositol, but not the 3H-diglyceride. The column effluent was collected directly in scintillation vials. The columns were washed once with additional 2 ml of hexane. The radiolabelled diglycerides were quantitated by liquid scintillation.

cyclooxygenase = experiment: Production of TXB2 and PGF2 α in rat peritoneal leukocyte homogenate (cyclooxygenase); type: biochemical; conditions: read-out: Cyclox, I50
Source text: Another assay has been developed to test the ability of the invented compounds on the activity of cyclooxygenase, which is one of the enzymes metabolizing arachidonic acids. By-products of arachidonic acid metabolism include thromboxanes, a type of which is designated as TXB2, and protoglandins, a class of which is known as PGF2 α. As indicated, supra, these by-products promote inflammatory response to a host of offending stimuli. The following protocol describes a procedure for testing the inhibitory effect on the production of TXB2 and PGF2 α.
Protocol for Detecting the Production of TXB2 and PGF2 α.
A suspension of glycogen elicited rat peritoneal leukocyte-homogenate in buffer is incubated with (^14 C)-arachidonic acid (AA), epinephrine and glutathione for 30 minutes at 37°. The reaction is quenched with 2M citric acid, and a trace amount of (^3 H)-TXB2 and an excess of unlabeled TXB2 and PGF2 α are added to each tube. […] Strips containing the spots are cut out, placed in scintillation vials and the radioactive content is quantitated in a liquid scintillation spectrometer.
After adjusting for the extraction efficiency, the amount (pmole) of (^14 C)-TXB2 and PGF2 α in each of the tubes is calculated. […] The ability of the test compounds to modulate the activity of this enzyme is determined by a decrease or increase in the net amount of TXB2 and PGF2 α produced.

CCC(=CC=Cc1cn(Cc2ccccc2)c2ccccc12)C(=O)O [Example 9, 5-(1-Benzylindol-3-yl)-2-Ethyl-2,4-Pentadienoic Acid]
IC50 (5-lipoxygenase): 2.3 µM
IC50 (Phospholipase C (PLC)): 37 µM
IC50 (cyclooxygenase): 15 µM
